# From patent publication US20200369716A1, “SOLID-PHASE SYNTHESIS OF PROTEIN-POLYMER CONJUGATES ON IMMOBILIZATION SUPPORTS” (Carnegie Mellon University, priority 2017, published 2020)
# Assays:
# [1] = molecular target: T1, Avidin from Gallus gallus egg white, Avi-pCBMA conjugate by PARIS (Gallus gallus, UniProt P02701); test: Binding affinity of HABA to Avi-pCBMA conjugate, PARIS; settings: 300 μM HABA
# T1 construct: purchased Lee Biosolutions (Maryland Heights, Mo.); host or cells: Gallus gallus egg white
# T1 sequence (P02701 25-152): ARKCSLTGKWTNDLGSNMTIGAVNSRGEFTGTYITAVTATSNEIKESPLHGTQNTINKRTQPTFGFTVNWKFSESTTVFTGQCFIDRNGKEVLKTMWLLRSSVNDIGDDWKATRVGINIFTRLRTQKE
# Description: (§1) α-Chymotrypsin (CT) from bovine pancreas (type II), lysozyme from chicken egg white, acetylcholinesterase from Electrophorus electricus (electric eel, type VI-S), uricase from porcine liver (type V), and agarase from Pseudomonas atlantica were purchased from Sigma Aldrich (St Louis, Mo.). Avidin from Gallus gallus egg white was purchased from Lee Biosolutions (Maryland Heights, Mo.). Protein surface active ATRP initiator (NHS-ATRP initiator) was prepared as described elsewhere (Murata et al., supra).
# (§2) Absorption at 500 nm of 300 μM HABA solution in phosphate buffered saline without calcium or magnesium (986 μL, Lonza) was measured using UV-VIS spectrometer. 16 μL, of the conjugates solution (1.25 μM of avidin in deionized water) was added to the HABA solution and incubated at room temperature for 1 minute, and then absorption at 500 nm was measured. Change in absorbance at 500 nm was used to determine bound HABA to the conjugate.
# [2] = molecular target: Avidin from Gallus gallus egg white, Avi-pCBMA conjugate by solution synthesis (Gallus gallus, UniProt P02701); test: Binding affinity of HABA to Avi-pCBMA conjugate, solution; settings: 300 μM HABA, 1 minute, room temperature, [Avi]0 = 2 μM, ε500 = 34000 M^−1
# Sequence of Avidin from Gallus gallus egg white, Avi-pCBMA conjugate by solution synthesis (P02701 25-152): as above
# Description: as §1, §2
# [3] = molecular target: T2, acetylcholinesterase (AChE) from Electrophorus electricus (electric eel, type VI-S), AChE-pCBMA conjugate by PARIS (Electrophorus electricus, UniProt O42275); test: Michaelis-Menten kinetics of AChE-catalyzed hydrolysis of acetylthiocholine iodide, PARIS conjugate; format: biochemical; settings: pH 7.4, 37° C.
# T2 construct: purchased Sigma Aldrich (St Louis, Mo.); host or cells: Electrophorus electricus (electric eel)
# T2 sequence (O42275 24-633): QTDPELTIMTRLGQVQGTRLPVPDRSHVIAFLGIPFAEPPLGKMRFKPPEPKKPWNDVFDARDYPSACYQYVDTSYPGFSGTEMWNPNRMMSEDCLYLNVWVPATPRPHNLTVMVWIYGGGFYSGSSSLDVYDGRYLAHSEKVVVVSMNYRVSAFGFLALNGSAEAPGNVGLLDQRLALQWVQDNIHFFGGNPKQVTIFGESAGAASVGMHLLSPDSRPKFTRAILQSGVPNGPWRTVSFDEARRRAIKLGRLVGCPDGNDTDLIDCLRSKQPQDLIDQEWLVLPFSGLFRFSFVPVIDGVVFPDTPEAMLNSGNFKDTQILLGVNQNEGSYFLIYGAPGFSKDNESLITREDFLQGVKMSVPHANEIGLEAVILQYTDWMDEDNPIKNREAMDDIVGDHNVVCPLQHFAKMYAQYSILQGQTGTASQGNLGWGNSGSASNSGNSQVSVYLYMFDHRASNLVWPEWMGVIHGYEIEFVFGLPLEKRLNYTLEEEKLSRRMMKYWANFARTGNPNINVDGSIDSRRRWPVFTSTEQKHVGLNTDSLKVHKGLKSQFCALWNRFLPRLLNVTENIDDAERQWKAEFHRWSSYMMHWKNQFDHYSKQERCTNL
# Description: as §1
# Acetylthiocholine iodide (0-100 μL of 10 mM in 100 mM sodium phosphate buffer (pH 7.4)) and 10 μL of DTNB solution (50 mM in DMSO) were mixed with 100 mM sodium phosphate buffer (980-880 μL, pH 7.4). Conjugate solution (10 μL, 5.5 μM of AChE) was added to the substrate solution. The initial substrate hydrolysis rate was monitored by recording the increase in absorbance at 412 nm using a UV-VIS absorbance spectrometer with a temperature-controlled cell holder at 37° C. Michaelis-Menten parameters were determined by nonlinear curve fitting of initial rate versus substrate concentration plots using Enzfitter software.
# [4] = test system: C[C@H](NC(=O)CCC(=O)O)C(=O)N[C@@H](C)C(=O)N1CCC[C@H]1C(=O)N[C@@H](Cc1ccccc1)C(=O)Nc1ccc([N+](=O)[O-])cc1; test: purified protein, by the assay type; settings: other: native CT, pH 8, 25° C.
# Description: Suc-AAPF-pNA (0-125 μL of 9.60 mM in DMSO) was mixed with sodium phosphate buffer (865-950 μL of 100 mM buffer, pH 8). Native CT or conjugate solutions (10 μL, 3.9 μM of CT) was added to the substrate solution. The initial substrate hydrolysis rate was monitored by recording the increase in absorbance at 412 nm using a UV-VIS absorbance spectrometer with a temperature-controlled cell holder at 25° C. Michaelis-Menten parameters were determined by nonlinear curve fitting of initial rate versus substrate concentration plots using Enzfitter software.
compound,measurement,setting,value
"O=C(O)c1ccccc1/N=N/c1ccc(O)cc1 [HABA, 4′-hydroxyazobenzene-2-carboxylic acid]",Ratio of binding affinity of HABA (PARIS:solution),"[1]; Avi-pCBMA, PARIS:solution",1.01 ± 0.14
same,Bound HABA,"[1]; PARIS Avi-pCBMA, 1 minute, room temperature, [Avi]0 = 2 μM, ε500 = 34000 M^−1",0.93 ± 0.13 µM
same,Bound HABA,[2],0.92 ± 0.04 µM
"CC(=O)SCC[N+](C)(C)C.[I-] [acetylthiocholine iodide, Acetylthiocholine iodide]",Ratio of enzymatic efficiency (PARIS:solution),[3],1.09 ± 0.08
"α-Chymotrypsin (CT) from bovine pancreas (type II), native (Bos taurus)",Km,[4],80.3 ± 13.1 µM
same,kcat,[4],34.6 ± 1.4 s⁻¹
same,kcat/Km,[4],431000 ± 72000 M⁻¹ s⁻¹
